Laboratory results as given in patent US8735391B2, “Synthesis of functionalized octahydro-isoquinolin-1-one-8-carboxamides, octahydro-isoquinolin-1-one-8-carboxylic esters and analogs, and therapeutic methods” (University of Kansas, priority 2008, dated 2014).

Each compound was assayed against DOR (Homo sapiens, UniProt P41143) (assay: Opioid secondary binding, DOR (Table 4)). Settings: Opioid secondary binding activity for Formula 10 analogs.
DOR, sequence (P41143 whole entry): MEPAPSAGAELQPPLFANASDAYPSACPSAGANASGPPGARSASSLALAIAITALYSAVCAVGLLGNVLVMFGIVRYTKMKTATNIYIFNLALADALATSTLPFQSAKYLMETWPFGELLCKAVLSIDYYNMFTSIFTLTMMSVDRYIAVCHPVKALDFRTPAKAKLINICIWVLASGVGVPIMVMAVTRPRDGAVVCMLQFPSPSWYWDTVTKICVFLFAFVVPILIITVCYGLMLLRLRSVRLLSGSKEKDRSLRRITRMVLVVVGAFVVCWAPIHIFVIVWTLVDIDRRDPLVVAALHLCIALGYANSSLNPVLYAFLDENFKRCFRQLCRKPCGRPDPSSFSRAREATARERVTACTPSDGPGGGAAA
With `CC(c1ccccc1)N1CCC2C=CCC(C(=O)NC3CCCCC3)C2C1=O` (mixture of isomers) [compound 12163] the Ki was 1160 nM.
For `CC(c1ccccc1)N1CCC2C=CCC(C(=O)Nc3ccccc3)C2C1=O` (mixture of isomers) [compound 12164], the Ki was 1380 nM.
`Cc1ccc(NC(=O)[C@@H]2CC=C[C@@H]3CCN(Cc4ccccc4)C(=O)[C@@H]32)cc1Cl` (racemic) [compound 11931] showed a Ki of 61 nM.
For `O=C(Nc1ccc([N+](=O)[O-])c(C(F)(F)F)c1)[C@@H]1CC=C[C@@H]2CCN(Cc3ccccc3)C(=O)[C@@H]21` (racemic) [compound 11932], the Ki was 41 nM.
Work on `O=C(Nc1ccc(I)cc1)[C@@H]1CC=C[C@@H]2CCN(Cc3ccccc3)C(=O)[C@@H]21` (racemic) [compound 11954] yielded a Ki of 194 nM.
With `O=C(NCc1cccc(Br)c1)[C@@H]1CC=C[C@@H]2CCN(Cc3ccccc3)C(=O)[C@@H]21` (racemic) [compound 11955] the Ki was 438 nM.
Work on `O=C(Nc1ccc(Cl)cc1)[C@@H]1CC=C[C@@H]2CCN(Cc3ccccc3)C(=O)[C@@H]21` (racemic) [compound 12102] yielded a Ki of 165 nM.
For `CN(C(=O)[C@@H]1CC=C[C@@H]2CCN(c3ccccc3)C(=O)[C@@H]21)c1ccccc1` (racemic) [compound 12119], the Ki was 4010 nM.
Compound `C=CCNC(=O)[C@@H]1CC=C[C@@H]2CCN(Cc3ccccc3)C(=O)[C@@H]21` (racemic) [compound 12122] has a Ki of 3430 nM.
In the case of `NC(=O)c1ccccc1NC(=O)[C@@H]1CC=C[C@@H]2CCN(Cc3ccccc3)C(=O)[C@@H]21` (racemic) [compound 12123], the Ki is reported as 5930 nM.
`CCOC(=O)c1ccc(NC(=O)[C@@H]2CC=C[C@@H]3CCN(Cc4ccccc4)C(=O)[C@@H]32)cc1` (racemic) [compound 12124] gave a Ki of 7820 nM.
With `O=C(Nc1ccccc1)[C@@H]1CC=C[C@@H]2CCN(Cc3ccccc3)C(=O)[C@@H]21` (racemic) [compound 12125] the Ki was over 10000 nM.
For `COc1ccc(CNC(=O)[C@@H]2CC=C[C@@H]3CCN(Cc4ccccc4)C(=O)[C@@H]32)cc1OC` (racemic) [compound 12126], the Ki was over 10000 nM.
`CCOC(=O)C1CCCCN1C(=O)[C@@H]1CC=C[C@@H]2CCN(Cc3ccccc3)C(=O)[C@@H]21` (mixture of isomers) [compound 12127] gave a Ki of over 10000 nM.
In the case of `CC(C)N(C(=O)[C@@H]1CC=C[C@@H]2CCN(CC3CCCCC3)C(=O)[C@@H]21)C1CCCCC1` (racemic) [compound 12134], the Ki is reported as 1630 nM.
For `O=C(NCc1ccc(Cl)c(Cl)c1)[C@@H]1CC=C[C@@H]2CCN(CC3CCCCC3)C(=O)[C@@H]21` (racemic) [compound 12136], the Ki was 1300 nM.
In the case of `O=C(Nc1cnccn1)[C@@H]1CC=C[C@@H]2CCN(CC3CCCCC3)C(=O)[C@@H]21` (racemic) [compound 12138], the Ki is reported as 1650 nM.
Work on `CC(C)N(C(=O)[C@@H]1CC=C[C@@H]2CCN(c3ccccc3)C(=O)[C@@H]21)C1CCCCC1` (racemic) [compound 12140] yielded a Ki of 416 nM.
`O=C(NCc1ccc(Cl)c(Cl)c1)[C@@H]1CC=C[C@@H]2CCN(c3ccccc3)C(=O)[C@@H]21` (racemic) [compound 12142] was tested, and the Ki was 103 nM.
`O=C(NC1CCCCC1)[C@@H]1CC=C[C@@H]2CCN(CC3CC3)C(=O)[C@@H]21` (racemic) [compound 12152] gave a Ki of 2520 nM.
With `O=C(Nc1ccccc1)[C@@H]1CC=C[C@@H]2CCN(CC3CC3)C(=O)[C@@H]21` (racemic) [compound 12153] the Ki was 6620 nM.
With `O=C(Nc1cccc(Cl)c1)[C@@H]1CC=C[C@@H]2CCN(CC3CC3)C(=O)[C@@H]21` (racemic) [compound 12154] the Ki was 1180 nM.
Work on `O=C(Nc1ccc(F)c(F)c1)[C@@H]1CC=C[C@@H]2CCN(CC3CC3)C(=O)[C@@H]21` (racemic) [compound 12155] yielded a Ki of 2250 nM.
With `O=C(Nc1ccc(Cl)c(C(F)(F)F)c1)[C@@H]1CC=C[C@@H]2CCN(CC3CC3)C(=O)[C@@H]21` (racemic) [compound 12156] the Ki was 788 nM.
Work on `O=C(Nc1nccs1)[C@@H]1CC=C[C@@H]2CCN(CC3CC3)C(=O)[C@@H]21` (racemic) [compound 12157] yielded a Ki of 3500 nM.
`CN(C(=O)[C@@H]1CC=C[C@@H]2CCN(C3CCCCC3)C(=O)[C@@H]21)c1ccccc1` (racemic) [compound 12160] showed a Ki of 2980 nM.
In the case of `COc1ccc(-c2cccc(CN3CC[C@H]4C=CC[C@@H](C(=O)Nc5ccc(Cl)c(C(F)(F)F)c5)[C@H]4C3=O)c2)cc1` (racemic) [compound 12161], the Ki is reported as 2130 nM.
`O=C(Nc1ccc(Br)c(C(F)(F)F)c1)[C@@H]1CC=C[C@@H]2CCN(CC3CC3)C(=O)[C@@H]21` (racemic) [compound 12172] was tested, and the Ki was 1280 nM.
In the case of `O=C(Nc1ccc(Br)c(C(F)(F)F)c1)[C@@H]1CC=C[C@@H]2CCN(CC3CCCCC3)C(=O)[C@@H]21` (racemic) [compound 12173], the Ki is reported as 508 nM.
In the case of `O=C(Nc1ccc(F)c(C(F)(F)F)c1)[C@@H]1CC=C[C@@H]2CCN(Cc3ccccc3)C(=O)[C@@H]21` (racemic) [compound 13474], the Ki is reported as 192 nM.
`Cc1ccc(NC(=O)[C@@H]2CC=C[C@@H]3CCN(Cc4ccccc4)C(=O)[C@@H]32)c(F)c1F` (racemic) [compound 13476] gave a Ki of 559 nM.
Work on `Cc1ccc(NC(=O)[C@@H]2CC=C[C@@H]3CCN(Cc4ccccc4F)C(=O)[C@@H]32)cc1C(F)(F)F` (racemic) [compound 13479] yielded a Ki of 9.5 nM.
`O=C(Nc1ccccc1)[C@@H]1CC=C[C@@H]2CCCN(C3CCCCC3)C(=O)[C@@H]21` (racemic) [compound 14423] was tested, and the Ki was 8840 nM.
`O=C(NC1CCCCC1)[C@@H]1CC=C[C@@H]2CCCN(C3CCCCC3)C(=O)[C@@H]21` (racemic) [compound 14424] gave a Ki of 1690 nM.
In the case of `O=C(Nc1cccc(Cl)c1)[C@@H]1CC=C[C@@H]2CCCN(C3CCCCC3)C(=O)[C@@H]21` (racemic) [compound 14425], the Ki is reported as 6040 nM.
Work on `O=C(Nc1nccs1)[C@@H]1CC=C[C@@H]2CCCN(C3CCCCC3)C(=O)[C@@H]21` (racemic) [compound 14428] yielded a Ki of 2990 nM.
Compound `O=C(Nc1ccccc1)[C@@H]1CC=C[C@@H]2CN(Cc3ccccc3)C(=O)[C@@H]21` (racemic) [compound 14429] has a Ki of 7020 nM.
`O=C(Nc1ccc(Br)c(C(F)(F)F)c1)[C@@H]1CC=C[C@@H]2CN(Cc3ccccc3)C(=O)[C@@H]21` (racemic) [compound 14432] was tested, and the Ki was 2770 nM.
For `O=C(Nc1ccc(Cl)c(C(F)(F)F)c1)[C@@H]1CC=C[C@@H]2CN(Cc3ccccc3)C(=O)[C@@H]21` (racemic) [compound 14433], the Ki was 1940 nM.
For `O=C(Nc1ccccc1)[C@@H]1CC=C[C@@H]2CN(C3CCCCC3)C(=O)[C@@H]21` (racemic) [compound 14435], the Ki was 1610 nM.
`O=C(NC1CCCCC1)[C@@H]1CC=C[C@@H]2CN(C3CCCCC3)C(=O)[C@@H]21` (racemic) [compound 14436] gave a Ki of 2150 nM.
In the case of `O=C(Nc1cccc(Cl)c1)[C@@H]1CC=C[C@@H]2CN(C3CCCCC3)C(=O)[C@@H]21` (racemic) [compound 14437], the Ki is reported as 962 nM.
With `O=C(Nc1ccc(Br)c(C(F)(F)F)c1)[C@@H]1CC=C[C@@H]2CN(C3CCCCC3)C(=O)[C@@H]21` (racemic) [compound 14438] the Ki was 1920 nM.
Compound `O=C(Nc1ccc(Cl)c(C(F)(F)F)c1)[C@@H]1CC=C[C@@H]2CN(C3CCCCC3)C(=O)[C@@H]21` (racemic) [compound 14439] has a Ki of 5350 nM.

These compounds were tested against KOR (Homo sapiens, UniProt P41145) (assay: Opioid secondary binding, KOR (Tables 4, 5, 8, 9)). Settings: Opioid secondary binding activity for Formula 10 analogs; read-out: KOR, Ki.
KOR, sequence (P41145 whole entry): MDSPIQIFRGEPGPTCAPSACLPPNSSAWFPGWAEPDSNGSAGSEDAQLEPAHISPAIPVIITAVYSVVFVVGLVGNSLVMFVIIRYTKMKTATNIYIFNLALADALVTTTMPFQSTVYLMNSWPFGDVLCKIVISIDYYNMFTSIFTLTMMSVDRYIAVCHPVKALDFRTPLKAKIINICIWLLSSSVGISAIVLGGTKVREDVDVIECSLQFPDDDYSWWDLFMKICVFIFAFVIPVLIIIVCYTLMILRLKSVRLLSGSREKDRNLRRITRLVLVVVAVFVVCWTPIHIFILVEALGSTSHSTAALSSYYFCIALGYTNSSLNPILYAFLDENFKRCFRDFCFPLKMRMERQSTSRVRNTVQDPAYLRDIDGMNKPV
With `CC(c1ccccc1)N1CCC2C=CCC(C(=O)NC3CCCCC3)C2C1=O` (mixture of isomers) [compound 12163] the Ki was 5910 nM.
`CC(c1ccccc1)N1CCC2C=CCC(C(=O)Nc3ccccc3)C2C1=O` (mixture of isomers) [compound 12164] was tested, and the Ki was 4780 nM.
Work on `Cc1ccc(NC(=O)[C@@H]2CC=C[C@@H]3CCN(Cc4ccccc4)C(=O)[C@@H]32)cc1Cl` (racemic) [compound 11931] yielded a Ki of 2570 nM.
For `O=C(Nc1ccc([N+](=O)[O-])c(C(F)(F)F)c1)[C@@H]1CC=C[C@@H]2CCN(Cc3ccccc3)C(=O)[C@@H]21` (racemic) [compound 11932], the Ki was 200 nM.
Compound `O=C(Nc1ccc(I)cc1)[C@@H]1CC=C[C@@H]2CCN(Cc3ccccc3)C(=O)[C@@H]21` (racemic) [compound 11954] has a Ki of 2820 nM.
`O=C(NCc1cccc(Br)c1)[C@@H]1CC=C[C@@H]2CCN(Cc3ccccc3)C(=O)[C@@H]21` (racemic) [compound 11955] gave a Ki of 3280 nM.
`O=C(Nc1ccc(Cl)cc1)[C@@H]1CC=C[C@@H]2CCN(Cc3ccccc3)C(=O)[C@@H]21` (racemic) [compound 12102] was tested, and the Ki was 5030 nM.
